The test system of experiment [1] is Panc-1, HCT-116, Pc3M/N, HEPG2, ASPC1, or H460 cells. As to the kind of experiment: Reduction of viable cell growth in glucose deprived media (liquid culture, alamarBlue). It is filed as cell-based. As to conditions: concentration giving at least 50% reduction of viable cell growth.
The next experiment has as its system A549 cancer cells. Put plainly: A549 NSCL xenograft model, combination with 2DG. The settings on record: 2DG 300 mg/kg, Example 36 2 mg/kg, i.p. daily (6 times per week); Example 36 alone p<0.05 at day 24 and 27; combination p<0.05 at day 13-27; FIG. 7. It is filed as in vivo, mice. From the text: Because the compounds of the invention may be more toxic to cancer cells deprived of glucose or treated with 2DG in vitro, the combination of 2DG with such compounds should have increased anti-tumor efficacy in vivo as compared with either agent alone. Accordingly, the effect of a combination therapy of the compound of Example 36 and 2DG using A549 NSCL xenograft model was examined.
Female athymic nude mice (nu/nu) (4-6 weeks old) were inoculated (s.c.) with 5×10^6 A549 cancer cells in PBS on the flanking site. After the tumors reached an average size ˜100 mm^3, the animals were divided into four treatment groups—0.9% NaCl (control), 2DG at 300 mg/kg, the compound of Example 36 at 2 mg/kg, and a combination of 2DG (300 mg/kg) and the compound of Example 36 (2 mg/kg). All the treatments were delivered by intraperitoneal injection daily (6 times per week). Tumor size and body weight were measured twice per week. Tumor volume was calculated using the formula TV=length×width×width/2.

The test system of experiment [2] is Lewis lung cancer cells. Put plainly: Mouse Lewis lung cancer (LLC) xenograft model. Format: in vivo, mice. The settings on record: 2 mg/kg intraperitoneal, 6 times per week; day 15; p<0.05; FIG. 6. On the procedure: Using the mouse Lewis lung cancer (LLC) xenograft model, female C57BL mice (4-6 weeks old) were inoculated (s.c.) with 5×10^5 Lewis lung cancer cells in PBS on the flanking site. Animals were randomly divided into treatment and control groups (n=8) based on tumor size when average tumor size reached 100 mm^3. Animals in the treatment group received the compound of Example 36 (also designated IMS2143) or the compound of Example 47 daily at 2 mg/kg via intraperitoneal dosing, 6 times per week respectively. The control group was injected with 0.9% NaCl. Tumor size and body weight were measured twice per week. Tumor volume was calculated using the formula TV=length×width×width/2.

Experiment [3] deals with Lewis lung cancer cells. Put plainly: Mouse LLC model, combination with 2DG. It is filed as in vivo, mice. As to conditions: Example 36 2 mg/kg, 2DG 300 mg/kg, i.p. 6 times per week; p<0.05; FIG. 8. On the procedure:
More specifically, female C57BL mice (4-6 weeks old) were inoculated (s.c.) with 5×10^5 Lewis lung cancer cells in PBS on the flanking site. Animals were randomly divided into treatment and control groups (n=8) based on tumor size when average tumor size reached 100 mm^3. Animals in the treatment groups received the compound of Example 36 daily at 2 mg/kg and 2DG at 300 mg/kg via intraperitoneal dosing, 6 times per week respectively. Tumor size and body weight were measured twice per week. Tumor volume was calculated using the formula TV=length×width×width/2.

Experimental findings from patent US20080281105A1, “Novel Quinolinium Salts and Derivatives” (IMMUSOL INCORPORATED, priority 2005, published 2008) are described below.

On to `CCCCOc1ccc(/C=C/c2ccc3cc(N(C)C)ccc3[n+]2C)cc1.O=S(=O)([O-])C(F)(F)F` [Example 36], for which the 50% effective concentration (EC50) (usually the midpoint of the concentration-response curve) in experiment [1] is under 1000 nM. The A549 tumor growth result in the experiment with A549 cancer cells is reported as “significantly inhibited tumor growth”. Besides, in the experiment on Lewis lung cancer cells [2], the LLC tumor growth entry is given as “significantly suppressed tumor growth”. In addition, the “LLC tumor growth as compared with 2DG alone or control” value in the experiment on Lewis lung cancer cells [3] was “significantly inhibited tumor growth”.
